2 molecules from BindingDB's records for PubMed 7616392 (Sanofi Recherche, 1995) can be followed below.

The experiment addresses T1, Neuromedin-K receptor (Homo sapiens, UniProt P29371).
T1 sequence (P29371 whole entry): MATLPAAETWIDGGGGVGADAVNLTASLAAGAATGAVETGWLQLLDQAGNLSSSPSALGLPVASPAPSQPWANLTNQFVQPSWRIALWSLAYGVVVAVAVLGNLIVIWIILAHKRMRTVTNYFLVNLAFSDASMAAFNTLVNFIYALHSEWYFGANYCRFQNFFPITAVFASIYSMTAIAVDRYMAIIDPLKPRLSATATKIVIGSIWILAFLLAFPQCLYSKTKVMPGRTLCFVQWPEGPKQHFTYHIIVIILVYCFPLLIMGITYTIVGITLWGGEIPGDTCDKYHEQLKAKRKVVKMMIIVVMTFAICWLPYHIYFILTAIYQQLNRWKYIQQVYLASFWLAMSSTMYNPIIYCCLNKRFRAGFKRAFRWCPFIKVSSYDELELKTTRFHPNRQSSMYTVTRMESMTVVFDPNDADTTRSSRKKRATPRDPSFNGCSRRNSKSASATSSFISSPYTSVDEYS

Take `CC(C)Oc1cccc(CC(=O)N2CCC[C@](CC[N+]34CCC(c5ccccc5)(CC3)CC4)(c3ccc(Cl)c(Cl)c3)C2)c1`: the affinity, expressed as Ki, was 1080 nM.
On to `CC(=O)NC1(c2ccccc2)CCN(CCC(CN(C)C(=O)c2ccccc2)c2ccc(Cl)c(Cl)c2)CC1` (configuration not stated) [SR 48968], for which the Ki was found to be 368 nM.

The term Ki denotes the dissociation constant of the complex between target and ligand, obtained from inhibition or displacement. Low readings indicate higher affinity, high ones lower affinity.
